Test results from PubChem BioAssay AID1963447 (Molecular Pharmacology Branch, DTP, NCI, 2024).

Test system: 885512-296-R-J2-PDC complex spheroid growth, % test/control
Test: Anticancer human tumor 885512-296-R-J2-PDC patient-derived breast carcinoma cell line growth inhibition [Asc]
Conditions: for IC50: curve of first compound; for viability, T/C: stronger effect = lower value
Method in brief: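 Complex solid-tumor spheroids incorporating human endothelial and mesenchymal stem cells received single agents or combinations over half-log dilution ranges anchored to clinical Cmax.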

[1] = second compound 0.03 µM, first compound 0.0316 µM
[2] = second compound 0.03 µM, first compound 0.1 µM
[3] = second compound 0.03 µM, first compound 0.316 µM
[4] = second compound 0.03 µM, first compound 1 µM
[5] = second compound 0.03 µM, first compound 3.16 µM
[6] = second compound 0.03 µM, first compound 10 µM
[7] = second compound 0.0949 µM, first compound 0.0316 µM
[8] = second compound 0.0949 µM, first compound 0.1 µM
[9] = second compound 0.0949 µM, first compound 0.316 µM
[10] = second compound 0.0949 µM, first compound 1 µM
[11] = second compound 0.0949 µM, first compound 3.16 µM
[12] = second compound 0.0949 µM, first compound 10 µM
[13] = second compound 0.3 µM, first compound 0.0316 µM
[14] = second compound 0.3 µM, first compound 0.1 µM
[15] = second compound 0.3 µM, first compound 0.316 µM
[16] = second compound 0.3 µM, first compound 1 µM
[17] = second compound 0.3 µM, first compound 3.16 µM
[18] = second compound 0.3 µM, first compound 10 µM
[19] = second compound 0.949 µM, first compound 0.0316 µM
[20] = second compound 0.949 µM, first compound 0.1 µM
[21] = second compound 0.949 µM, first compound 0.316 µM
[22] = second compound 0.949 µM, first compound 1 µM
[23] = second compound 0.949 µM, first compound 3.16 µM
[24] = second compound 0.949 µM, first compound 10 µM
[25] = second compound 3 µM, first compound 0.0316 µM
[26] = second compound 3 µM, first compound 0.1 µM
[27] = second compound 3 µM, first compound 0.316 µM
[28] = second compound 3 µM, first compound 1 µM
[29] = second compound 3 µM, first compound 3.16 µM
[30] = second compound 3 µM, first compound 10 µM
[31] = second compound 0.03 µM, first compound 0.00316 µM
[32] = second compound 0.03 µM, first compound 0.01 µM
[33] = second compound 0.0949 µM, first compound 0.00316 µM
[34] = second compound 0.0949 µM, first compound 0.01 µM
[35] = second compound 0.3 µM, first compound 0.00316 µM
[36] = second compound 0.3 µM, first compound 0.01 µM
[37] = second compound 0.949 µM, first compound 0.00316 µM
[38] = second compound 0.949 µM, first compound 0.01 µM
[39] = second compound 3 µM, first compound 0.00316 µM
[40] = second compound 3 µM, first compound 0.01 µM
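Note: spheroids exposed to compounds for seven days.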
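Throughout, for viability, T/C: 100% = DMSO vehicle control wells.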

Row | IC50 (second compound 0.03 µM) [nM] | IC50 (second compound 0.0949 µM) [nM] | IC50 (second compound 0.3 µM) [nM] | IC50 (second compound 0.949 µM) [nM] | IC50 (second compound 3 µM) [nM] | SMILES | viability, T/C [1] [%] | viability, T/C [2] [%] | viability, T/C [3] [%] | viability, T/C [4] [%] | viability, T/C [7] [%] | viability, T/C [8] [%] | viability, T/C [9] [%] | viability, T/C [10] [%] | viability, T/C [13] [%] | viability, T/C [14] [%] | viability, T/C [15] [%] | viability, T/C [16] [%] | viability, T/C [19] [%] | viability, T/C [20] [%] | viability, T/C [21] [%] | further results
1 | > 10000 | > 10000 | > 10000 | > 10000 | < 31.6 | C#Cc1c(F)ccc2cc(O)cc(-c3ncc4c(N5CC6CCC(C5)N6)nc(OCC56CCCN5CC(F)C6)nc4c3F)c12 (stereo not given) + CCN1C(C(=O)NC23CCC(C(=O)O)(CC2)CC3)C(c2cccc(Cl)c2F)C2(C(=O)Nc3cc(Cl)ccc32)C12CCCCC2 | 105 | 98 | 107 | 82.8 | 117 | 101 | 91.4 | 89.1 | 95.7 | 86.5 | 93.3 | 82.4 | 80.5 | 59.9 | 69.1 | viability, T/C [5]: 107%; viability, T/C [6]: 80.3%; viability, T/C [11]: 95.6%; viability, T/C [12]: 83.2%; viability, T/C [17]: 78.3%; viability, T/C [18]: 88.7%; viability, T/C [22]: 64.7%; viability, T/C [23]: 70%; viability, T/C [24]: 84.7%; viability, T/C [25]: 53.7%; viability, T/C [26]: 42.1%; viability, T/C [27]: 38%; viability, T/C [28]: 43.5%; viability, T/C [29]: 51.2%; viability, T/C [30]: 61.7%
2 | 2290 | 2460 | 2240 | 1900 | 1050 | C=C(F)C(=O)N1CCN(c2nc(OCC3CCCN3C)nc3c2CCN(c2cccc4cccc(Cl)c24)C3)CC1CC#N (stereo not given) + CCN1C(C(=O)NC23CCC(C(=O)O)(CC2)CC3)C(c2cccc(Cl)c2F)C2(C(=O)Nc3cc(Cl)ccc32)C12CCCCC2 | 96.3 | 110 | 101 | 110 | 118 | 117 | 120 | 107 | 94 | 95.1 | 98.2 | 102 | 69 | 72 | 76.9 | viability, T/C [5]: 28.6%; viability, T/C [6]: 0.11%; viability, T/C [11]: 34%; viability, T/C [12]: 0.38%; viability, T/C [17]: 29.5%; viability, T/C [18]: 0.1%; viability, T/C [22]: 90.1%; viability, T/C [23]: 28.6%; viability, T/C [24]: 0.1%; viability, T/C [25]: 43%; viability, T/C [26]: 43.3%; viability, T/C [27]: 51.5%; viability, T/C [28]: 67.5%; viability, T/C [29]: 19.8%; viability, T/C [30]: 0.15%
3 | > 10000 | > 10000 | > 10000 | > 10000 | < 31.6 | C=CC(=O)N1CCN(c2nc(=O)n(-c3c(C)ccnc3C(C)C)c3nc(-c4c(O)cccc4F)c(F)cc23)C(C)C1 (stereo not given) + CCN1C(C(=O)NC23CCC(C(=O)O)(CC2)CC3)C(c2cccc(Cl)c2F)C2(C(=O)Nc3cc(Cl)ccc32)C12CCCCC2 | 93.7 | 96.8 | 111 | 112 | 73.5 | 108 | 114 | 108 | 89.8 | 88.3 | 117 | 95.3 | 68.7 | 71.2 | 70 | viability, T/C [5]: 101%; viability, T/C [6]: 61.3%; viability, T/C [11]: 96.3%; viability, T/C [12]: 64%; viability, T/C [17]: 101%; viability, T/C [18]: 72%; viability, T/C [22]: 86.9%; viability, T/C [23]: 91.8%; viability, T/C [24]: 61%; viability, T/C [25]: 38.8%; viability, T/C [26]: 52.6%; viability, T/C [27]: 46.4%; viability, T/C [28]: 61.1%; viability, T/C [29]: 58.5%; viability, T/C [30]: 52.2%
4 | > 1000 | > 1000 | > 1000 | > 1000 | < 3.16 | CNC(C)C(=O)NC1CN(S(=O)(=O)c2cccc(S(=O)(=O)N3CCC4CCC(C(=O)NC(c5ccccc5)c5ccccc5)N4C(=O)C(NC(=O)C(C)NC)C3)c2)CCC2CCC(C(=O)NC(c3ccccc3)c3ccccc3)N2C1=O (stereo not given) + CCN1C(C(=O)NC23CCC(C(=O)O)(CC2)CC3)C(c2cccc(Cl)c2F)C2(C(=O)Nc3cc(Cl)ccc32)C12CCCCC2 | 99.8 | 94.2 | 126 | 109 | 90.3 | 112 | 120 | 115 | 91.6 | 93 | 103 | 112 | 76.6 | 87.6 | 91.9 | viability, T/C [31]: 92.3%; viability, T/C [32]: 90.4%; viability, T/C [33]: 77.6%; viability, T/C [34]: 110%; viability, T/C [35]: 84.3%; viability, T/C [36]: 88.7%; viability, T/C [37]: 75.3%; viability, T/C [38]: 72.8%; viability, T/C [22]: 86.6%; viability, T/C [39]: 41.4%; viability, T/C [40]: 37.4%; viability, T/C [25]: 49%; viability, T/C [26]: 59.5%; viability, T/C [27]: 59%; viability, T/C [28]: 62.6%
5 | 285 | 259 | 204 | 126 | < 3.16 | COc1c(OCCCN2CCOCC2)ccc2c3n(c(=NC(=O)c4cnc(N)nc4)nc12)CCN3 + CCN1C(C(=O)NC23CCC(C(=O)O)(CC2)CC3)C(c2cccc(Cl)c2F)C2(C(=O)Nc3cc(Cl)ccc32)C12CCCCC2 | 93.5 | 72.6 | 48.3 | 6.36 | 79.8 | 64.7 | 47.4 | 6.12 | 80.1 | 63.2 | 41.2 | 6.26 | 64.4 | 50 | 38.8 | viability, T/C [31]: 80.1%; viability, T/C [32]: 87.9%; viability, T/C [33]: 73.7%; viability, T/C [34]: 88.1%; viability, T/C [35]: 82.7%; viability, T/C [36]: 68.5%; viability, T/C [37]: 61.5%; viability, T/C [38]: 54.5%; viability, T/C [22]: 6.82%; viability, T/C [39]: 47.1%; viability, T/C [40]: 32.4%; viability, T/C [25]: 28.6%; viability, T/C [26]: 35.4%; viability, T/C [27]: 32.6%; viability, T/C [28]: 6.56%
